Assay results as given in patent US11034725B2, “Compositions and methods for treating cardiovascular disease” (Genentech, Inc., priority 2016, dated 2021).
Where two headings read alike, the source gives them in different places. Numbered stars: 1 amine (or outer) side, 2 acyl side, 3 side chain; on linkers, the order of the positions; unused ones are H or OH. Bridge positions count the residues as written; N and C are the ends. Square brackets hold non-standard residues; d marks the D form. Peptide text beside a SMILES is read from it. * marks the point of attachment. Butyryl(4-indol-3-yl) = O=C(CCCc1c[nH]c2ccccc12)*; Benzoyl(4-Ph) = O=C(c1ccc(-c2ccccc2)cc1)*; Dihydrocaffeoyl = O=C(CCc1ccc(O)c(O)c1)*; X43 = CS(=O)(=O)c1ccc(C(=O)CCC(=O)*)cc1; Desaminotyrosyl = O=C(CCc1ccc(O)cc1)*; X21 = O=C([C@@H]1C[C@@H]1c1cccnc1)*; X44 = Cn1cc([C@H]2C[C@H]2C(=O)*)cn1; X5 = Cn1cc([C@@H]2C[C@H]2C(=O)*)cn1; X17 = O=C([C@H]1C[C@@H]1c1cccnc1)*; hArg = N=C(N)NCCCC[C@H](N)C(=O)O; X24 = CN1CCC(n2cc(C(=O)*)cn2)C1; X39 = O=C(C1CCC(c2ccccc2)CC1)*; Suc = O=C(CCC(=O)[*:2])[*:1]; X25 = COc1cc(CCC(=O)*)ccc1O; X10 = Nc1cccc(CCC(=O)*)c1; X30 = O=C(CCc1cccc(O)c1)*; Morpholide = C1CN(*)CCO1; X27 = O=C(CCCN1CCOCC1)*

Experiments:
PCSK9 = PCSK9 (Homo sapiens, UniProt Q8NBP7); test: PCSK9/EGF(A) TR-FRET binding assay
PCSK9Δhelix = target: T1, PCSK9Δhelix (Homo sapiens, UniProt Q8NBP7); test: PCSK9Δhelix/Ab20 TR-FRET binding assay
T1 construct: Human PCSK9 construct M1-Q692 with an engineered TEV site (residue deletion Y166, R167); made in house; host or cells: CHO

[1] = TR-FRET, Table 8E, additional compounds, read-out: PCSK9/EGF(A) IC50
[2] = TR-FRET, Table 8E, additional compounds, read-out: PCSK9Δhelix/Ab20 IC50
[3] = PCSK9Δhelix/Ab20 IC50, TR-FRET, Table 8E, additional compounds
[4] = TR-FRET, Table 8D, disulfide-cyclized extension peptides, read-out: PCSK9Δhelix/Ab20 IC50

Sequence of PCSK9 (Q8NBP7 153-692): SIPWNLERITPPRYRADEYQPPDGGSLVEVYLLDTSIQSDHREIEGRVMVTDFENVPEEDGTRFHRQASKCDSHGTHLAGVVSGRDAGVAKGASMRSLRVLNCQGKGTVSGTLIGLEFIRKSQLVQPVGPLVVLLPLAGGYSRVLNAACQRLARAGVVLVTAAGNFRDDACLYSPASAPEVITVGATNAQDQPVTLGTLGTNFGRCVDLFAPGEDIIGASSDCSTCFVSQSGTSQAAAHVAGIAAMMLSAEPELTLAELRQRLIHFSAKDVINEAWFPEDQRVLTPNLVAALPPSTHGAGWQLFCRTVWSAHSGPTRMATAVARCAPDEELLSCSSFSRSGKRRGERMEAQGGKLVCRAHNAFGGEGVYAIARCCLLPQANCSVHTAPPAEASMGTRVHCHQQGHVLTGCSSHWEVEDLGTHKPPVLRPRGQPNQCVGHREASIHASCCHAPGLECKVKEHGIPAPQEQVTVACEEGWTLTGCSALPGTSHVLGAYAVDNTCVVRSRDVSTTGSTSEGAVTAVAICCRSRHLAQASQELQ
Sequence of PCSK9 (Q8NBP7 31-152 partner limits assumed): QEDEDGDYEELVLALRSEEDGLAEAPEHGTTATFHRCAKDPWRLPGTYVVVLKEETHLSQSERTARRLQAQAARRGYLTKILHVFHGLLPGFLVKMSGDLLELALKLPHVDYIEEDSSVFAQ
T1 sequence (Q8NBP7 with tags, fused parts or gaps limits assumed): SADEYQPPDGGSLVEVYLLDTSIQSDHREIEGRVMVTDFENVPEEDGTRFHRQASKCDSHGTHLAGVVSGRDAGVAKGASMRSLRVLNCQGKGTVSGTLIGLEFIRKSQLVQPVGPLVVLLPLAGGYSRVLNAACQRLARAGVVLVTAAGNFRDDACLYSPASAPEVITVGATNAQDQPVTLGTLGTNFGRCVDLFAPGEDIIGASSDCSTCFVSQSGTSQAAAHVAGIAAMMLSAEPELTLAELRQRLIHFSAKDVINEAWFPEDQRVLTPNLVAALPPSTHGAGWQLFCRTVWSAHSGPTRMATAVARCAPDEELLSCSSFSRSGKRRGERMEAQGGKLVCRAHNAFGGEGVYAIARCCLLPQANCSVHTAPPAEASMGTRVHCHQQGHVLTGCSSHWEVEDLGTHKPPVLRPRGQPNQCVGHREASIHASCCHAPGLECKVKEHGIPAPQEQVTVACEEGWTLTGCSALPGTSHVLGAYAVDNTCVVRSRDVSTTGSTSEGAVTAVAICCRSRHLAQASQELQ
T1 sequence (Q8NBP7 31-152 partner limits assumed): as the sequence (Q8NBP7 31-152 partner limits assumed) above

Compound	IC50 (PCSK9; [1])	IC50 (PCSK9Δhelix; [2])	further results
CC[C@H](C)[C@H](NC(=O)[C@H](CCCCNC(=N)N)NC(=O)[C@@H](NC(=O)[C@H](CC(C)C)NC(=O)[C@H](CC(N)=O)NC(=O)[C@H](Cc1c[nH]c2ccccc12)NC(=O)CCCc1c[nH]c2ccccc12)C(C)C)C(=O)NCC(=O)N[C@@H](CC(C)C)C(=O)N[C@@H](CC(C)C)C(=O)N[C@@H](CCCNC(=N)N)C(N)=O [Compound 200] ({Butyryl(4-indol-3-yl)}-WNLV[hArg]IGLLR-NH2)	3.2 µM	0.67 µM	
CC[C@H](C)[C@H](NC(=O)[C@H](CCCCNC(=N)N)NC(=O)[C@@H](NC(=O)[C@H](CC(C)C)NC(=O)[C@H](CC(N)=O)NC(=O)[C@H](Cc1c[nH]c2ccccc12)NC(=O)CCCN1CCOCC1)C(C)C)C(=O)NCC(=O)N[C@@H](CC(C)C)C(=O)N[C@@H](CC(C)C)C(=O)N[C@@H](CCCNC(=N)N)C(N)=O [Compound 193] (X27-WNLV[hArg]IGLLR-NH2)	≥ 50 µM	1.5 µM	
CC[C@H](C)[C@H](NC(=O)[C@H](CCCNC(=N)N)NC(=O)[C@@H](NC(=O)[C@H](CC(C)C)NC(=O)[C@H](CC(N)=O)NC(=O)[C@H](Cc1c[nH]c2ccccc12)NC(=O)CCC(=O)c1ccc(S(C)(=O)=O)cc1)C(C)C)C(=O)NCC(=O)N[C@@H](CC(C)C)C(=O)N[C@H](C(=O)N[C@@H](CCCNC(=N)N)C(N)=O)[C@@H](C)O [Compound 163] (X43-WNLVRIGLTR-NH2)	≥ 50 µM	37 µM	
CC[C@H](C)[C@H](NC(=O)[C@H](CCCNC(=N)N)NC(=O)[C@@H](NC(=O)[C@H](CC(C)C)NC(=O)[C@H](CC(N)=O)NC(=O)[C@H](Cc1c[nH]c2ccccc12)NC(=O)CCCc1c[nH]c2ccccc12)C(C)C)C(=O)NCC(=O)N[C@@H](CC(C)C)C(=O)N[C@H](C(=O)N[C@@H](CCCNC(=N)N)C(N)=O)[C@@H](C)O [Compound 190] ({Butyryl(4-indol-3-yl)}-WNLVRIGLTR-NH2)	30 µM	7 µM	
CC[C@H](C)[C@H](NC(=O)[C@H](CCCNC(=N)N)NC(=O)[C@@H](NC(=O)[C@H](CC(C)C)NC(=O)[C@H](CC(N)=O)NC(=O)[C@H](Cc1c[nH]c2ccccc12)NC(=O)CCc1cccc(O)c1)C(C)C)C(=O)NCC(=O)N[C@@H](CC(C)C)C(=O)N[C@H](C(=O)N[C@@H](CCCNC(=N)N)C(N)=O)[C@@H](C)O [Compound 168] (X30-WNLVRIGLTR-NH2)	≥ 50 µM	7.8 µM	
CC[C@H](C)[C@H](NC(=O)[C@H](CCCNC(=N)N)NC(=O)[C@@H](NC(=O)[C@H](CC(C)C)NC(=O)[C@H](CC(N)=O)NC(=O)[C@H](Cc1c[nH]c2ccccc12)NC(=O)C1CCC(c2ccccc2)CC1)C(C)C)C(=O)NCC(=O)N[C@@H](CC(C)C)C(=O)N[C@H](C(=O)N[C@@H](CCCNC(=N)N)C(N)=O)[C@@H](C)O (stereo partly shown) [Compound 185] (X39-WNLVRIGLTR-NH2)	5.7 µM	0.39 µM	
CC[C@H](C)[C@H](NC(=O)[C@H](CCCNC(=N)N)NC(=O)[C@@H](NC(=O)[C@H](CC(C)C)NC(=O)[C@H](CC(N)=O)NC(=O)[C@H](Cc1c[nH]c2ccccc12)NC(=O)[C@@H]1C[C@@H]1c1cnn(C)c1)C(C)C)C(=O)NCC(=O)N[C@@H](CC(C)C)C(=O)N[C@@H](CC(C)C)C(=O)N[C@@H](CCCNC(=N)N)C(N)=O [Compound 135] (X44-WNLVRIGLLR-NH2)	≥ 50 µM	10 µM	
CC[C@H](C)[C@H](NC(=O)[C@H](CCCCNC(=N)N)NC(=O)[C@@H](NC(=O)[C@H](CC(C)C)NC(=O)[C@H](CC(N)=O)NC(=O)[C@H](Cc1c[nH]c2ccccc12)NC(=O)CCc1ccc(O)c(OC)c1)C(C)C)C(=O)NCC(=O)N[C@@H](CCC(N)=O)C(=O)N[C@@H](CCCNC(=N)N)C(N)=O [Compound 239] (X25-WNLV[hArg]IGQR-NH2)			IC50 (PCSK9): 32 µM; IC50 (PCSK9Δhelix; [3]): 1.2 µM
CC[C@H](C)[C@H](NC(=O)[C@H](CCCNC(=N)N)NC(=O)[C@@H](NC(=O)[C@H](CC(C)C)NC(=O)[C@H](CC(N)=O)NC(=O)[C@H](Cc1c[nH]c2ccccc12)NC(=O)CCCN1CCOCC1)C(C)C)C(=O)NCC(=O)N[C@@H](CC(C)C)C(=O)N[C@H](C(=O)N[C@@H](CCCNC(=N)N)C(N)=O)[C@@H](C)O [Compound 162] (X27-WNLVRIGLTR-NH2)	≥ 50 µM	37 µM	
CC[C@H](C)[C@H](NC(=O)[C@H](CCCCNC(=N)N)NC(=O)[C@@H](NC(=O)[C@H](CC(C)C)NC(=O)[C@H](CC(N)=O)NC(=O)[C@H](Cc1c[nH]c2ccccc12)NC(=O)[C@H]1C[C@@H]1c1cccnc1)C(C)C)C(=O)NCC(=O)N[C@@H](CC(C)C)C(=O)N[C@@H](CC(C)C)C(=O)N[C@@H](CCCNC(=N)N)C(N)=O [Compound 225] (X17-WNLV[hArg]IGLLR-NH2)	27 µM	1.8 µM	
CC[C@H](C)[C@H](NC(=O)[C@H](CCCCNC(=N)N)NC(=O)[C@@H](NC(=O)[C@H](CC(C)C)NC(=O)[C@H](CC(N)=O)NC(=O)[C@H](Cc1c[nH]c2ccccc12)NC(=O)CCc1ccc(O)cc1)C(C)C)C(=O)NCC(=O)N[C@@H](CC(C)C)C(=O)N[C@@H](CC(C)C)C(=O)N[C@@H](CCCNC(=N)N)C(N)=O [Compound 214] (Desaminotyrosyl-WNLV[hArg]IGLLR-NH2)	3 µM	0.21 µM	
CC[C@H](C)[C@H](NC(=O)[C@H](CCCNC(=N)N)NC(=O)[C@@H](NC(=O)[C@H](CC(C)C)NC(=O)[C@H](CC(N)=O)NC(=O)[C@H](Cc1c[nH]c2ccccc12)NC(=O)[C@@H]1C[C@H]1c1cnn(C)c1)C(C)C)C(=O)NCC(=O)N[C@@H](CC(C)C)C(=O)N[C@@H](CC(C)C)C(=O)N[C@@H](CCCNC(=N)N)C(N)=O [Compound 127] (X5-WNLVRIGLLR-NH2)	≥ 50 µM	29 µM	
CC[C@H](C)[C@H](NC(=O)[C@H](CCCNC(=N)N)NC(=O)[C@@H](NC(=O)[C@H](CC(C)C)NC(=O)[C@H](CC(N)=O)NC(=O)[C@H](Cc1c[nH]c2ccccc12)NC(=O)c1cnn(C2CCN(C)C2)c1)C(C)C)C(=O)NCC(=O)N[C@@H](CC(C)C)C(=O)N[C@@H](CC(C)C)C(=O)N[C@@H](CCCNC(=N)N)C(N)=O (stereo partly shown) [Compound 129] (X24-WNLVRIGLLR-NH2)	≥ 50 µM	23 µM	
CC[C@H](C)[C@H](NC(=O)[C@H](CCCCNC(=N)N)NC(=O)[C@@H](NC(=O)[C@H](CC(C)C)NC(=O)[C@H](CC(N)=O)NC(=O)[C@H](Cc1c[nH]c2ccccc12)NC(=O)CCc1ccc(O)c(O)c1)C(C)C)C(=O)NCC(=O)N[C@@H](CC(C)C)C(=O)N[C@@H](CC(C)C)C(=O)N[C@@H](CCCNC(=N)N)C(N)=O [Compound 224] (Dihydrocaffeoyl-WNLV[hArg]IGLLR-NH2)	7 µM	0.53 µM	
CC[C@H](C)[C@H](NC(=O)[C@H](CCCNC(=N)N)NC(=O)[C@@H](NC(=O)[C@H](CC(C)C)NC(=O)[C@H](CC(N)=O)NC(=O)[C@H](Cc1c[nH]c2ccccc12)NC(=O)c1ccc(-c2ccccc2)cc1)C(C)C)C(=O)NCC(=O)N[C@@H](CC(C)C)C(=O)N[C@@H](CC(C)C)C(=O)N[C@@H](CCCNC(=N)N)C(N)=O [Compound 145] ({Benzoyl(4-Ph)}-WNLVRIGLLR-NH2)			IC50 (PCSK9; PCSK9/EGF(A) IC50, TR-FRET, Table 8E, additional compounds): 7.3 µM; IC50 (PCSK9Δhelix; [3]): 2.2 µM
CC[C@H](C)[C@H](NC(=O)[C@H](CCCCNC(=N)N)NC(=O)[C@@H](NC(=O)[C@H](CC(C)C)NC(=O)[C@H](CC(N)=O)NC(=O)[C@H](Cc1c[nH]c2ccccc12)NC(=O)CCc1cccc(N)c1)C(C)C)C(=O)NCC(=O)N[C@@H](CC(C)C)C(=O)N[C@@H](CC(C)C)C(=O)N[C@@H](CCCNC(=N)N)C(N)=O [Compound 215] (X10-WNLV[hArg]IGLLR-NH2)	7 µM	0.48 µM	
CC[C@H](C)[C@H](NC(=O)[C@H](CCCCNC(=N)N)NC(=O)[C@@H](NC(=O)[C@H](CC(C)C)NC(=O)[C@H](CC(N)=O)NC(=O)[C@H](Cc1c[nH]c2ccccc12)NC(=O)CCC(=O)N1CCOCC1)C(C)C)C(=O)NCC(=O)N[C@@H](CC(C)C)C(=O)N[C@@H](CC(C)C)C(=O)N[C@@H](CCCNC(=N)N)C(N)=O [Compound 194] ({Morpholide-Suc}-WNLV[hArg]IGLLR-NH2)	≥ 50 µM	1.9 µM	
CC[C@H](C)[C@@H]1NC(=O)[C@H](CCCNC(=N)N)NC(=O)[C@H](CCCCN)NC(=O)[C@H](CC(C)C)NC(=O)[C@H](CC(N)=O)NC(=O)[C@H](Cc2c[nH]c3ccccc23)NC(=O)[C@H](CC(C)C)NC(=O)[C@@H](NC(=O)[C@H](Cc2c[nH]c3ccccc23)NC(C)=O)CSSC[C@@H](C(=O)N[C@@H](Cc2c[nH]c3ccccc23)C(=O)N[C@@H](Cc2ccccc2)C(=O)O)NC(=O)[C@H](CCC(N)=O)NC(=O)[C@H](CO)NC(=O)CNC1=O [Compound 90] (Ac-WCLWNLKRIGSQCWF-OH; disulfide 2-13)			IC50 (PCSK9Δhelix; [4]): 7.38 µM
CC[C@H](C)[C@@H]1NC(=O)[C@H](CCCNC(=N)N)NC(=O)[C@H](CCCCN)NC(=O)[C@H](CC(C)C)NC(=O)[C@H](CC(N)=O)NC(=O)[C@H](Cc2c[nH]c3ccccc23)NC(=O)[C@H](CC(C)C)NC(=O)[C@@H](NC(=O)[C@@H](N)Cc2c[nH]c3ccccc23)CSSC[C@@H](C(=O)N[C@@H](Cc2c[nH]c3ccccc23)C(=O)N[C@@H](Cc2ccccc2)C(=O)O)NC(=O)[C@H](CCC(N)=O)NC(=O)[C@H](CO)NC(=O)CNC1=O [Compound 66] (H-WCLWNLKRIGSQCWF-OH; disulfide 2-13)			IC50 (PCSK9Δhelix; [4]): 12 µM
CC[C@H](C)[C@H](NC(=O)[C@H](CCCCNC(=N)N)NC(=O)[C@@H](NC(=O)[C@H](CC(C)C)NC(=O)[C@H](CC(N)=O)NC(=O)[C@H](Cc1c[nH]c2ccccc12)NC(=O)[C@@H]1C[C@@H]1c1cccnc1)C(C)C)C(=O)NCC(=O)N[C@@H](CC(C)C)C(=O)N[C@@H](CC(C)C)C(=O)N[C@@H](CCCNC(=N)N)C(N)=O [Compound 221] (X21-WNLV[hArg]IGLLR-NH2)	9.5 µM		
